Assay results taken from patent publication US5582981A, “Method for identifying an oligonucleotide aptamer specific for a target” (priority 1994, dated 1996).

Test system: thrombin
Assay: clotting time for thrombin-catalyzed conversion of fibrinogen to fibrin
Format: biochemical
Conditions: thrombin 10 nM, 7 mer at 20 μM; thrombin alone 24 sec
Method: Clotting time for the thrombin-catalyzed conversion of fibrinogen (2.0 mg/ml in selection buffer) to fibrin at 37° C. was measured using a precision coagulation timer apparatus (Becton-Dickinson, Cat. nos. 64015, 64019, 64020). Thrombin (10 nM) incubated with fibrinogen alone clotted in 40 sec, thrombin incubated with fibrinogen and P1 nuclease (Boehringer-Mannheim, Indianapolis, Ind.) clotted in 39 sec, thrombin incubated with fibrinogen and aptamer clone #5 (200 nM) clotted in 115 sec, and thrombin incubated with fibrinogen, clone #5 (200 nM) and P1 nuclease clotted in 40 sec. All incubations were carried out at 37° C. using reagents prewarmed to 37° C. Aptamer DNA or, when present, P1 nuclease, was added to the fibrinogen solution prior to addition of thrombin.
Inhibition of thrombin activity was studied using a consensus-related sequence 7 mer, 5' GGTTGGG 3' (SEQ ID NO: 15), and a control 7 mer with the same base composition but different sequence (5' GGGGGTT 3') (SEQ ID NO: 16). Clotting times were measured using the timer apparatus as above. The thrombin clotting time in this experiment was 24 sec using thrombin alone (10 nM), 26 sec with thrombin and the control sequence at 20 μM and 38 sec with thrombin plus the consensus sequence at 20 μM, indicating specificity for thrombin inhibition at the level of the 7 mer.

Row | Substance | thrombin clotting time
1 | 5' GGGGGTT 3' (chemistry not given here) [SEQ ID NO: 16] | 26 s
2 | 5' GGTTGGG 3' (chemistry not given here) [SEQ ID NO: 15] | 38 s
